Assay results taken from patent US7579468B2, “Methods of modulating neurotrophin-mediated activity” (PainCeptor Pharma Corporation, priority 2005, dated 2009).
Entries after “also recorded” stand apart in the source; their conditions may differ.

How the values were obtained:
Male Sprague-Dawley rats [1] = test: Spared Nerve Injury (SNI) model of neuropathic pain; assay type: in vivo, rat; conditions: Von Frey filaments, 90 min post-treatment, Compound 11 3 and 10 mg/kg i.p., Compound 107 20 mg/kg i.p.
Text: The Spared Nerve Injury (SNI) model (Decosterd et al., Pain 2000; 87: 149) was used to induce chronic neuropathic pain. Male Sprague-Dawley rats were anesthetized with isoflurane, and two of the three terminal branches of the sciatic nerve (tibial and common peroneal nerves) were transected, leaving the remaining sural nerve intact. Animals develop thermal and mechanical hyperalgesia and allodynia, as well as spontaneous pain or dysesthesia that last month after the nerve injury.
Mechanical allodynia testing: Pre- and post-injury baselines as well as post-treatment values (vehicle or compound-treated animals) for mechanical allodynia were evaluated using Von Frey filaments (Stoelting, Wood Dale, Ill., USA) with varying stiffness. […] The mean and standard error of the mean (SEM) were determined for each paw in each treatment group (ipsilateral/injured paw and contralateral/non-injured paw). […] Effects of compounds were evaluated two weeks after the injury. Compound or vehicle was administered (i.p. or s.c.) and effects on mechanical allodynia were measured at different time points after dosing (e.g., 30, 60 and 90 min.).
(§1) Data analysis: Statistical analyses were conducted using Prism™ 4.01 (GraphPad, San Diego, Calif., USA). Mechanical hypersensitivity of the injured paw was determined by comparing contralateral to ipsilateral paw values within the vehicle group at each time point. […]

[2] = tested on: NGF-induced Erk 1/2 phosphorylation in PC12 cells; test: Erk phosphorylation in NGF-stimulated PC12 cells (Western blot); assay type: cell-based, rat; conditions: 5 ng/mL NGF
Experimental: This assay is useful for establishing that the compounds of the invention are functional NGF antagonists, not receptor agonists (an agonist could conceivably block NGF binding but actually activate the receptor). Erk 1/2 is a kinase activated down stream of TrkA and is a well studied member of the NGF-induced signal transduction cascade.
PC12 cells expressing TrkA and p75 were acutely exposed to 5 ng/mL NGF (15 min; 37° C.; 5% CO2) that was pre-incubated (30 min; room temperature) with or without the compounds. Cells were lysed in Laemmli sample buffer (for SDS-PAGE) or a lysis buffer containing Triton X-100 (for ELISA). Following SDS-PAGE, proteins were electroblotted onto nitrocellulose and immunoprobed for phosphorylated Erk 1 and 2. Blocking and primary antibody incubations of immunoblots were performed in Tris-buffered saline-Tween (10 mM Tris, pH 8.0, 150 mM NaCl, and 0.2% Tween 20) supplemented with 5% (w/v) bovine serum albumin (BSA); secondary antibody incubations were performed in 5% (w/v) dried skim milk powder. Immunoreactive bands were detected by chemiluminescence.

Male Sprague-Dawley rats [3] = test: Chung or Spinal Nerve Ligation (SNL) model of neuropathic pain; assay type: in vivo, rat; conditions: Von Frey filaments, 90 min post-treatment, 5 and 10 mg/kg i.p.
Text: The Spinal Nerve Ligation (SNL) model (Kim and Chung, Pain 1992; 50: 355) was used to induce chronic neuropathic pain. Male Sprague-Dawley rats (Harlan, Indianapolis, Ind., USA) were anesthetized with isoflurane, the left […] was removed, and the L5 and L6 spinal nerves were tightly ligated with 6-0 silk suture. The wound was then closed with internal sutures and external staples.
Mechanical allodynia testing: Pre- and post-injury baselines as well as post-treatment values (vehicle or compound-treated animals) for non-noxious mechanical sensitivity were evaluated using 8 Semmes-Weinstein filaments (Stoelting, Wood Dale, Ill., USA) with varying stiffness according to the up-down method (Chaplan et al., J Neurosci Methods 1994; 53: 55). […] The mean and standard error of the mean (SEM) were determined for each paw in each treatment group. […] Effects of compounds were evaluated two weeks after the injury. Compound or vehicle was administered (i.p. or s.c.) and effects on mechanical allodynia were measured at different time points after dosing (e.g., 30, 60 and 90 min.). […]
as §1, with “point. Data were analyzed using the Mann-Whitney test.” for “point.”

A875: p75 alone = test: 125I-NGF binding displacement in A875 cells; parameters: species or system human; conditions: A875 cells expressing p75; individual experiment
Experimental: All cells were incubated at 37° C. in 5% CO2. PC12 cells were maintained in RPMI-1640 medium supplemented with 10% fetal bovine serum (FBS). A875 human melanoma cells were maintained in DMEM with 10% FBS. HEK 293 cells were stably transfected with human TrkA plasmid (see below) and maintained in DMEM with 10% FBS and G418 (600 μg/mL) for selection.
NGF binding was evaluated using methods familiar to those who are skilled in the art. Briefly, cells expressing one or both NGF receptors (PC12: TrkA+p75; A875: p75 alone; HEK_TrkA: TrkA alone) were harvested by replacing the medium with calcium-magnesium free balanced salt (Grey's) solution and incubating at 37° C. for 15 min. For NGF binding, cells were resuspended at a concentration of 2×10^6 cells/mL in HEPES-Krebs-Ringer (HKR) buffer (10 mM HEPES; 125 mM NaCl; 4.8 mM KCl; 1.3 mM CaCl2; 1.2 mM MgSO4; 1.2 mM KH2PO4; 1 mg/ml BSA; 1 mg/ml glucose; pH 7.4) and exposed to ^125I-NGF (˜0.11 nM) in the presence or absence of varying concentrations of the compound. Non-specific binding was determined for reference by incubating ^125I-NGF with an excess of non-radioactive NGF in the absence of compound. Following a two-hour incubation period at 4° C., ^125I-NGF bound to the cells was quantified in a gamma radiation counter following separation from unbound NGF by filtration or centrifugation through glycerol (10% in HKR). Inhibition of binding was calculated as a percent of the specific binding (calculated as the differential between ^125I-NGF binding in the absence and presence of an excess of non-radioactive NGF without compound). Dose-response inhibition curves were typically generated with seven concentrations of a given compound, with three replicates for each concentration. For most compounds, multiple dose-response curves were generated.

For `CC(=O)Nc1cc2c3c(cc(NC(C)=O)cc3c1)C(=O)N(CCCC(=O)O)C2=O` [Compound 11, 4-(5,8-Bis-acetylamino-1,3-dioxo-1H,3H-benzo[de]isoquinolin-2-yl)-butyric acid], the “Effect on mechanical allodynia in the SNI model” value (Male Sprague-Dawley rats [1]) was “significant dose-dependent reversal of the mechanical allodynia; also recorded: significant antinociceptive effects”, the “Inhibition of NGF-induced Erk 1/2 phosphorylation” value [2] was “inhibits NGF-induced Erk 1/2 phosphorylation in PC12 cells” and the “Effect on mechanical allodynia in the SNL model” value (Male Sprague-Dawley rats [3]) was “significant dose-dependent reversal of the mechanical allodynia; also recorded: significant antinociceptive effects”. The “NGF binding displacement, dose-response curve” value (A875: p75 alone) was “effectively blocks NGF binding to cells expressing p75”.
